Assay results published in US9827277B2, “Sulphated polysaccharide composition” (UNIVERSITÉ BLAISE PASCAL—CLERMONT II, priority 2012, dated 2017).

What was measured:
[1] = test system: HFF (Human Foreskin Fibroblast) cells; test: Cytotoxicity test (sulforhodamine B) on HFF cells; type: cell-based
Procedure: Culturing of HFF (Human Foreskin Fibroblast Cells in 96-Well Plate From a 75 cm^2 flask of HFF cells at confluence, the culture medium was removed, and then 2 mL of trypsin-EDTA (0.025% trypsin and 0.01% EDTA—Ethylenediaminetetraacetic acid) was added (at 37° C.). The flask was then briefly rinsed and the trypsin was removed. 2 mL of trypsin-EDTA was subsequently added and the flask was incubated for 5 minutes in an oven at 37° C.
5 ml of culture medium (minimal essential medium—MEM (PARA Laboratories GmbH)+Glutamine (2 mM)+Fungizone (2.5 μg/mL)+Penicillin (100 units/mL)+Streptomycin (100 μg/mL)+decomplemented Foetal Calf Serum 15%) was added and then the flask was rinsed with a pipette. The medium and cells were recovered in a tube. Counting on the Malassez counting chamber was then performed.
The cells were subsequently centrifuged at 200 g, for 7 minutes, and then the supernatant was removed. The pellet was taken up in the culture medium in a manner so as to obtain 10^5 cells/mL.
200 μL of this suspension per well was distributed, while leaving empty the wells of columns 1 and 12 and rows A and H. The wells that were left empty were filled with 200 μL of culture medium in order to prevent evaporation.
When the cells had reached confluence in the wells (about 48 hours), the medium was aspirated by making use of a vacuum extractor pump and then 200 μL of culture medium containing the various polysaccharides to be tested (the latter are tested at 50, 100, and 200 μg/mL) was added.
Each concentration was tested in triplicate. […]
The proteins were solubilised by using 200 μL of Tris-Base (10 mM) for 5 minutes on a plate with stirring at ambient temperature. The OD (Optical Density) at 550 nm was measured by making use of a microplate reader (Multiskan FC357, Thermo Scientific).
The mean of the OD and the standard deviation have been calculated for each sample tested in order to arrive at a conclusion with respect to the toxicity of the products.

Nosema ceranae = test: Inhibitory activity in vivo on Nosema in honey bees
Procedure: The results presented here have been obtained from the summer honey bees.
After recovering one brood chamber frame (or more as per the needs in honey bees) from the apiary by means of a glass frame holder, the latter was placed in an oven at 34° C. for a period of 24 to 48 hours in a manner so as to allow the honey bees to emerge from their cells. Then, the young honey bees were retrieved from the frame by making use of a pair of entomologist's forceps and placed in the beekeeping boxes (supers) on the basis of 50 honey bees/box. ⅙^th of a tube stick of PseudoQueen (Contech Enterprises, Canada) was added in each of the beekeeping boxes.
Each polysaccharide treatment was carried out in triplicate (three boxes/treatment). Each test operation contained a “healthy honey bees” control (honey bees not infected and not treated), an “infected honey bees” control (honey bees infected experimentally and not treated) and a fumagillin control; with these controls also being in triplicate. […]
Over the course of the post-Infection phase (a time period of 20 days), the dead honey bees were counted and removed on a daily basis from each of the boxes in order to track and monitor mortality. […]

## C[S+](C)[O-] [DMSO Positive Control, DMSO]
[1]; HFF cells, culture medium containing 20% of DMSO, 96 hours
  Conclusion: Cytotoxic: control validated
[1]; HFF cells, positive control: culture medium containing 20% of DMSO, 96 hours of incubation
  Viability (%): 6.8 +/− 1.4%

## CO[C@@H]1[C@H](OC(=O)/C=C/C=C/C=C/C=C/C(=O)O)CC[C@]2(CO2)[C@H]1[C@@]1(C)O[C@@H]1CC=C(C)C [Fumagillin Control, fumagillin]
[1]; human, 96 h, 1 μg/mL
  Viability (%): 99.1 +/− 12.2%
Nosema ceranae; honey bees infected with 125,000 N. ceranae spores, syrup supplemented with 1 μg/mL fumagillin, fed 3 days before and 20 days after infection
  Mortality at 20 days post-infection (%): 25.9 +/− 16.7%
Nosema ceranae; spore count at 20 days vs infected honey bees control, syrup with 1 μg/mL fumagillin
  Change in parasite load (decrease): Decrease of 63.4%
